Laboratory results: ChEMBL document CHEMBL1201862, “PubChem BioAssay data set” (2004)
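Compound exposure: 48 hours, 5 concentrations, 96-well plates. Here, GI50 denotes the concentration required for 50% inhibition of growth.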 Calls of active or inactive are those of the source. Cut-off read from the data, not from the text of the source: active = GI50 up to about 1.1 µM and inactive = higher.

Tests used:
Assay in all cases: NCI tumour cell line growth inhibition, 48 h
HOP-92 = system: HOP-92
Hs-578T = system: Hs-578T
A549 = system: A549
HCT-116 = system: HCT-116
SF-295 = system: SF-295
NCI-H460 = system: NCI-H460
M14 = system: M14
SR = system: SR
CCRF-CEM = system: CCRF-CEM
HT-29 = system: HT-29
MOLT-4 = system: MOLT-4
UO-31 = system: UO-31
LOX IMVI = system: LOX IMVI
OVCAR-3 = system: OVCAR-3
U-251 = system: U-251
KM12 = system: KM12
NCI-H522 = system: NCI-H522
A498 = system: A498
UACC-257 = system: UACC-257
HCC 2998 = system: HCC 2998

Measured: GI50

c1ccc([B-]2(c3ccccc3)OCCc3cccc[n+]32)cc1
inactive: HOP-92 28.2 µM | Hs-578T 37.7 µM | A549 84.9 µM | HCT-116 35 µM | SF-295 67 µM | NCI-H460 60.3 µM | M14 36.2 µM | SR 22.8 µM | CCRF-CEM 23.4 µM | HT-29 87.1 µM | MOLT-4 56.2 µM | UO-31 23.7 µM | LOX IMVI 97.3 µM | OVCAR-3 51.8 µM | U-251 > 100 µM | KM12 96.4 µM | NCI-H522 49.1 µM | A498 19.6 µM | UACC-257 80.7 µM

COc1cccc(-c2ccc3c4c2O[C@H]2C(=O)CC[C@@]5(O)[C@@H](C3)N(CC3CC3)CC[C@]425)c1
inactive: HOP-92 15.3 µM | Hs-578T 12.3 µM | A549 18.2 µM | HCT-116 17.5 µM | SF-295 18.4 µM | NCI-H460 28.9 µM | M14 14.5 µM | SR 10.3 µM | CCRF-CEM 7.29 µM | HT-29 11.6 µM | MOLT-4 10.2 µM | UO-31 14.5 µM | LOX IMVI 16.3 µM | OVCAR-3 14.4 µM | U-251 16.2 µM | KM12 17.7 µM | NCI-H522 17.7 µM | A498 18.7 µM | UACC-257 25.9 µM

O=C(CN1CCOCC1)NC1=Nc2ncccc2C(=O)NN1
inactive: HOP-92 > 10 µM | Hs-578T > 10 µM | A549 > 10 µM | HCT-116 > 10 µM | SF-295 > 10 µM | NCI-H460 > 10 µM | M14 > 10 µM | SR > 10 µM | CCRF-CEM > 10 µM | HT-29 > 10 µM | MOLT-4 > 10 µM | UO-31 > 10 µM | LOX IMVI > 10 µM | OVCAR-3 > 10 µM | U-251 > 10 µM | KM12 > 10 µM | A498 > 10 µM | UACC-257 > 10 µM

Cc1nc2ccccc2c(=O)n1NC(=S)Nc1ccc(Cl)cc1[N+](=O)[O-]
inactive: HOP-92 > 100 µM | Hs-578T > 100 µM | A549 > 100 µM | HCT-116 > 100 µM | SF-295 > 100 µM | NCI-H460 > 100 µM | M14 > 100 µM | SR > 100 µM | CCRF-CEM > 100 µM | HT-29 > 100 µM | MOLT-4 > 100 µM | UO-31 > 55.5 µM | OVCAR-3 > 100 µM | U-251 > 100 µM | KM12 > 100 µM | NCI-H522 > 100 µM | A498 > 100 µM | UACC-257 > 100 µM

[N-]=[N+]=Nc1nc2ccccc2c(N=[N+]=[N-])c1Cl
inactive: HOP-92 30.3 µM | Hs-578T 31.6 µM | A549 > 100 µM | HCT-116 > 100 µM | SF-295 > 100 µM | NCI-H460 > 100 µM | HCC 2998 > 100 µM | M14 > 100 µM | SR > 100 µM | CCRF-CEM > 100 µM | HT-29 > 100 µM | MOLT-4 > 100 µM | UO-31 > 100 µM | LOX IMVI > 100 µM | OVCAR-3 > 100 µM | U-251 > 100 µM | KM12 > 100 µM | A498 6.81 µM | UACC-257 > 100 µM

C[N+](C)([O-])CCC=C1c2ccccc2CCc2ccccc21
inactive: HOP-92 25.5 µM | Hs-578T 25.6 µM | A549 28.1 µM | HCT-116 29.6 µM | SF-295 27.5 µM | NCI-H460 31.3 µM | M14 31 µM | SR 16.7 µM | CCRF-CEM 18.6 µM | HT-29 22.3 µM | MOLT-4 17.2 µM | LOX IMVI 1.14 µM | OVCAR-3 23.6 µM | U-251 18.2 µM | KM12 18.1 µM | NCI-H522 16.6 µM | A498 21.5 µM | UACC-257 35.5 µM

Fc1ccccc1C1SCC2=Nc3ccccc3CN21 (centres undefined)
inactive: HOP-92 > 100 µM | Hs-578T > 100 µM | A549 > 100 µM | HCT-116 48.5 µM | SF-295 70.8 µM | NCI-H460 > 100 µM | HCC 2998 > 100 µM | M14 > 100 µM | SR 79.8 µM | CCRF-CEM > 100 µM | HT-29 > 100 µM | MOLT-4 > 100 µM | UO-31 > 100 µM | LOX IMVI > 100 µM | OVCAR-3 97.1 µM | U-251 > 100 µM | KM12 > 100 µM | A498 > 100 µM | UACC-257 > 100 µM

O=C(Nc1cccc(F)c1)c1cc2ccc(O)cc2o/c1=N\c1cccc(F)c1
inactive: Hs-578T 3.09 µM | A549 3.97 µM | HCT-116 4.78 µM | SF-295 13.6 µM | NCI-H460 4.26 µM | HCC 2998 27.1 µM | M14 7.73 µM | SR 4.5 µM | CCRF-CEM 2.22 µM | HT-29 > 100 µM | MOLT-4 2.45 µM | UO-31 4.36 µM | LOX IMVI 3.27 µM | OVCAR-3 4.91 µM | U-251 3.99 µM | KM12 6.95 µM | NCI-H522 2.99 µM | A498 33 µM | UACC-257 9.68 µM
